Data published in patent US20230374141A1, “COMBINATION THERAPY FOR ALPORT RENAL DISEASE” (Father Flanagan's Boys' Home Doing Business as Boys Town …, priority 2020, published 2023).
No end group written: not given here.

Columns and labels:
mesangial cells = test: Filopodia formation in cultured mesangial cells; format: cell-based
Description: Thus, it appears that the al-null mesangial cells are refractive to activation of CDC42, which is consistent with the markedly attenuated effect on mesangial filopodial invasion, explaining why al integrin blockade attenuates ECM-mediated podocyte injury.

DKO mice [1] = test: Glomerular filtration rate, MediBeacon transdermal LED approach, DKO mice; format: in vivo; details: ramipril-treated DKO mice, 25 weeks relative to 20 weeks of age; two mice
Procedure: Glomerular filtration rates (GFR) were measured using the MediBeacon (St Louis, MO) transdermal LED approach, which allows serial measurements to be conducted in the same animals. […] Serial GFR measures were made using two ramipril-treated DKO mice. GFR measures were at 20 and 25 weeks of age. Additional mice at additional timepoints of measure (to 30 weeks) will be added as part of the research plan to establish statistical significance.

α1 null Alport mice = test: Proteinuria (Bradford assay, normalized to urinary creatinine) in α1 null Alport mice; format: in vivo; details: ramipril-treated vs untreated α1-null Alport mice; total protein normalized to urinary creatinine
Procedure: FIG. 1. […] Urine was collected from the indicated treatment groups at the indicated ages. Total protein was measured by Bradford assay and normalized to urinary creatinine.
(§1) Autosomal Alport mice or al integrin null Alport (DKO) mice (both on the 129 Sv background) were given straight water or treated with ramipril (10 mg/kg/day in drinking water) starting at 3 weeks of age. Proteinuria (FIG. 1) and lifespan (FIG. 2) were measured. We were surprised to see the improvement of lifespan from 20 weeks in ramipril-treated Alport mice to >30 weeks in ramipril-treated DKO mice. Tripling the lifespan of the Alport mouse model (which lives to on average 10 weeks of age as is evident in FIG. 2) is unprecedented in the Alport field. Integrin α1-null Alport (DKO) mice treated with ramipril live twice as long as untreated DKO mice and 3 times as long as untreated Alport mice. Animals from the indicated treatment groups were allowed to live until they lost >10% of their peak body weight and then euthanized (a humane endpoint, considered age of death). DKO mice show a 60% increase in lifespan. […] If translated to humans (as did ramipril treatment starting at a young age) this therapy could portend survival to 60-70 years of age for Alport patients with severe mutations.

DKO mice [2] = test: Dual immunofluorescence of glomeruli for mesangial proteins in the GBM of DKO mice; format: in vivo
Description: FIGS. 3A-3F are color dual immunofluorescence confocal images of glomeruli stained with antibodies against laminin α5 (a GBM marker) and laminin α2. FIGS. 3A-3C are untreated DKO mice. FIGS. 3D-3F are DKO mice treated with Ramipril. FIGS. 3A and 3D show laminin α5 data. FIGS. 3B and 3E show laminin α2 data. FIGS. 3C and 3F show a merge of the laminin α5 and laminin α2 data.
FIGS. 4A-4F are color dual immunofluorescence confocal images of glomeruli stained with antibodies against nidogen (a GBM marker) and collagen III. FIGS. 4A-4C are untreated DKO mice. FIGS. 4D-4F are DKO mice treated with Ramipril. FIGS. 4A and 4D show nidogen data. FIGS. 4B and 4E show collagen 3 α1 data. FIGS. […] show a merge of the nidogen and collagen 3 α1 data.
This evidence has obvious and important translational value. By preventing the invasion of the glomerular capillaries by mesangial filopodia, the deposition of mesangial proteins in the GBM is prevented. This prevents podocyte injury that is caused by the mesangial matrix.
If the ECM deposition in the GBM is indeed a significant contributor to glomerular pathology we would expect it would be delayed in the ramipril-treated DKO mice. To determine if this was indeed the case, we performed immunohistochemical analysis for laminin 211 dual stained with the GBM marker laminin α5. Specifically, Duan immunofluorescence analysis was performed on cryosections from 20 and 25 week old DKO/ramipril mice. Sections were immunostained using antibodies for laminin 211 and laminin α5 (a GBM marker). […] Between 20 and 25 weeks of age, however, GBM localization of laminin 211 became widespread as depicted in FIGS. 6A-6F. FIGS. 6A-6C are the 20-week data and FIGS. 6D-6F are the 25-week data.

[3] = system: al integrin null Alport (DKO) mice; test: Lifespan of ramipril-treated α1 integrin null Alport (DKO) mice; format: in vivo
Procedure: as §1

Autosomal Alport mice = test: Lifespan of ramipril-treated autosomal Alport mice; format: in vivo; details: ramipril 10 mg/kg/day in drinking water from 3 weeks of age, 129 Sv, humane endpoint >10% loss of peak body weight
Procedure: as §1

[4] = ramipril-treated DKO mice at 10 weeks of age, untreated DKO had a significant amount

| Molecule | formation of filopodia (mesangial cells; wild type mesangial cells) | formation of filopodia (mesangial cells; α1-null mesangial cells) | GFR (DKO mice [1]) | proteinuria (α1 null Alport mice) | collagen III in the GBM (DKO mice [2]; [4]) | laminin 211 in the GBM (DKO mice [2]; [4]) | GBM accumulation of laminin 211 (DKO mice [2]; ramipril-treated DKO mice, before 20 weeks of age) | GBM localization of laminin 211 (DKO mice [2]; ramipril-treated DKO mice, between 20 and 25 weeks of age) | lifespan (age of death) ([3]; ramipril 10 mg/kg/day in drinking water from 3 weeks of age, α1 integrin null Alport (DKO) mice, 129 Sv) | lifespan relative to untreated Alport mice ([3]; ramipril-treated DKO mice) | lifespan relative to untreated DKO mice ([3]; ramipril-treated DKO mice) | lifespan (age of death) (Autosomal Alport mice) |
| --- | --- | --- | --- | --- | --- | --- | --- | --- | --- | --- | --- | --- |
| endothelin-1: stimulus of filopodial formation in mesangial cells (CSCSSLMDKECVYFCHLDIIW; ends and bridges not checked; cysteine pairing not given here; UniProt P05305 53-73, looked up) | activates the formation of filopodia | do not respond | – | – | – | – | – | – | – | – | – | – |
| CCOC(=O)[C@H](CCc1ccccc1)N[C@@H](C)C(=O)N1[C@H](C(=O)O)C[C@@H]2CCC[C@@H]21 [ramipril] | – | – | marked reduction | markedly reduced | no laminin 211 or collagen III in the GBM | no laminin 211 or collagen III in the GBM | did not observe any significant GBM accumulation | widespread | > 30 weeks | 3 times | twice as long | 20 weeks |
